Literature values, collected in patent US8747385B2, “Methods and compositions to treat myocardial conditions” (Abbott Cardiovascular Systems Inc., priority 2003, dated 2014).

Compound | O2 solubility at 37° C. [V %]
FC1(F)C(F)(F)C(F)(F)C2(F)C(F)(F)C(F)(F)C(F)(F)C(F)(F)C2(F)C1(F)F (centres unmarked) [FDC, Perfluorodecalin] | 45
FC(F)(F)C(F)(F)C(F)(F)C(F)(F)CCC(F)(F)C(F)(F)C(F)(F)C(F)(F)F [F-44E, 1,2-bis(perfluorobutyl)ethane] | 50
